Measured values: PubChem BioAssay AID192 (DTP/NCI, 2004)
Where “and” joins values, the source holds several entries; their conditions need not be identical. Identical values can stand only once. Toxic doses and inconclusive results are not listed. The calls were made as follows: active = survival T/C of 150% or more; inactive = T/C below 125% in these data. Square brackets hold non-standard residues; d marks the D form. Peptide text beside a SMILES is read from it. * marks the point of attachment. ξ: configuration not given here. ξH = NC(Cc1c[nH]cn1)C(=O)O; CH2Cl = ClC*

Test system: BDF1 mice, B16 melanoma ip, median survival T/C
Assay: NCI In Vivo Anticancer Drug Screen. Data for tumor model B16 Melanoma (intraperitoneal) in B6D2F1 (BDF1) mice
Details: endpoint: median survival time, higher = longer survival
How it was run: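 The ratio T/C compares compound-treated mice with vehicle-treated controls, using survival or tumor size as the endpoint in a transplantable tumor model.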

[1] = dose: 50.0 mg/kg/injection, schedule: Q01DX009 (ip), vehicle: saline
[2] = dose: 100.0 mg/kg/injection, schedule: Q01DX009 (ip), vehicle: saline
[3] = dose: 200.0 mg/kg/injection, schedule: Q01DX009 (ip), vehicle: saline
[4] = dose: 400.0 mg/kg/injection, schedule: Q01DX009 (ip), vehicle: saline
[5] = dose: 6.25 mg/kg/injection, schedule: Q01DX009 (ip), vehicle: Klucel (hydroxypropylcellulose) (HPC)
[6] = dose: 12.5 mg/kg/injection, schedule: Q01DX009 (ip), vehicle: Klucel (hydroxypropylcellulose) (HPC)
[7] = dose: 25.0 mg/kg/injection, schedule: Q01DX009 (ip), vehicle: Klucel (hydroxypropylcellulose) (HPC)
[8] = dose: 50.0 mg/kg/injection, schedule: Q01DX009 (ip), vehicle: Klucel (hydroxypropylcellulose) (HPC)
[9] = dose: 100.0 mg/kg/injection, schedule: Q01DX009 (ip), vehicle: Klucel (hydroxypropylcellulose) (HPC)
[10] = dose: 200.0 mg/kg/injection, schedule: Q01DX009 (ip), vehicle: Klucel (hydroxypropylcellulose) (HPC)
[11] = dose: 12.5 mg/kg/injection, schedule: Q01DX009 (ip), vehicle: saline with Tween-80
[12] = dose: 25.0 mg/kg/injection, schedule: Q01DX009 (ip), vehicle: saline with Tween-80
[13] = dose: 50.0 mg/kg/injection, schedule: Q01DX009 (ip), vehicle: saline with Tween-80
[14] = dose: 100.0 mg/kg/injection, schedule: Q01DX009 (ip), vehicle: saline with Tween-80
[15] = dose: 400.0 mg/kg/injection, schedule: Q01DX009 (ip), vehicle: Klucel (hydroxypropylcellulose) (HPC)

Measured: T/C

CNCC(C)(C)c1ccccc1
inactive: dose: 6.25 mg/kg/injection, schedule: Q01DX009 (ip), vehicle: saline 102 % of control | dose: 12.5 mg/kg/injection, schedule: Q01DX009 (ip), vehicle: saline 90 % of control | dose: 25.0 mg/kg/injection, schedule: Q01DX009 (ip), vehicle: saline 102 % of control | [1] 100 % of control

Cc1cc(C)c(S(=O)(=O)O)cc1C
inactive: [1] 115 % of control | [2] 104 % of control | [3] 87 % of control

CC(C)OCCS(=O)(=O)Oc1ncc(Cl)cc1Cl
inactive: dose: 100.0 mg/kg/injection, schedule: Q04DX003 (ip), vehicle: saline with Tween-80 100 % of control | dose: 200.0 mg/kg/injection, schedule: Q04DX003 (ip), vehicle: saline with Tween-80 93 % of control

CCC(CC)c1ccccn1
inactive: dose: 100.0 mg/kg/injection, schedule: Q01DX009 (ip), vehicle: carboxymethylcellulose (CMC) 101 % of control | dose: 200.0 mg/kg/injection, schedule: Q01DX009 (ip), vehicle: carboxymethylcellulose (CMC) 95 % of control

C=CCCC(=O)CCCC(=O)O[C@@H]1[C@@H]2[C@H](CC1(C)C)[C@H](O)[C@@]13O[C@@H]1[C@H](O)[C@@]1(CO1)[C@@]23C
inactive: dose: 6.2 micrograms/kg/injection, schedule: Q01DX009 (ip), vehicle: saline 98 % of control | dose: 6.3 micrograms/kg/injection, schedule: Q01DX009 (ip), vehicle: Klucel (hydroxypropylcellulose) (HPC) 107 % of control | dose: 12.5 micrograms/kg/injection, schedule: Q01DX009 (ip), vehicle: Klucel (hydroxypropylcellulose) (HPC) 121 % of control | dose: 12.5 micrograms/kg/injection, schedule: Q01DX009 (ip), vehicle: saline 97 % of control | dose: 25.0 micrograms/kg/injection, schedule: Q01DX009 (ip), vehicle: saline 106 % of control | dose: 50.0 micrograms/kg/injection, schedule: Q01DX009 (ip), vehicle: Klucel (hydroxypropylcellulose) (HPC) 91 % of control | dose: 50.0 micrograms/kg/injection, schedule: Q01DX009 (ip), vehicle: saline 102 % of control

NCC(=O)NCC(=O)NC(Cc1cnc[nH]1)C(=O)O (stereo not drawn) (H-Gly-Gly-[ξH]-OH)
inactive: [1] 92 % of control | [2] 99 % of control | [3] 88 % of control | [4] 101 % of control

COC1C(OC(=O)c2ccc(C)[nH]2)C(O)C(Oc2ccc3c(O)c(NC(=O)c4ccc(O)c(CC=C(C)C)c4)c(=O)oc3c2Cl)OC1(C)C (centres undefined)
inactive: dose: 6.25 mg/kg/injection, schedule: Q01DX009 (ip), vehicle: other 101 % of control | dose: 12.5 mg/kg/injection, schedule: Q01DX009 (ip), vehicle: other 97 % of control and 124 % of control | dose: 25.0 mg/kg/injection, schedule: Q01DX009 (ip), vehicle: other 90 % of control and 91 % of control | dose: 50.0 mg/kg/injection, schedule: Q01DX009 (ip), vehicle: other 94 % of control

CCCCN(CCCC)C(Cl)=Nc1ccccc1
inactive: [5] 89 % of control and 99 % of control | [6] 101 % of control and 102 % of control | [7] 101 % of control | [8] 96 % of control and 103 % of control | [9] 93 % of control and 105 % of control | [10] 88 % of control and 100 % of control

CNC(=O)ON=C1CCC(CC2CCCCC2)CC1 (centres undefined)
inactive: [7] 93 % of control | [8] 100 % of control | [9] 103 % of control

CCCCCCCCCCCCCC[N+](C)(C)CCCCCCCCCCCCCC
inactive: dose: 6.0 mg/kg/injection, schedule: Q01DX009 (ip), vehicle: saline 88 % of control

CN(C)CCOc1ccc2c(c1)C/C(=C/c1ncc([N+](=O)[O-])n1C)C2=O
inactive: dose: 6.25 mg/kg/injection, schedule: Q01DX009 (ip), vehicle: saline with Tween-80 109 % of control | [11] 100 % of control | [12] 96 % of control | [13] 99 % of control | [14] 109 % of control

CC(=O)NC(CC(C)C)C(=O)NC(Cc1ccccc1)C(=O)CCl (stereo not drawn) (Ac-Leu-Phe-CH2Cl; configuration not given here)
inactive: dose: 1.56 mg/kg/injection, schedule: Q01DX009 (ip), vehicle: Klucel (hydroxypropylcellulose) (HPC) 100 % of control | dose: 3.12 mg/kg/injection, schedule: Q01DX009 (ip), vehicle: Klucel (hydroxypropylcellulose) (HPC) 100 % of control | [5] 96 % of control and 97 % of control

ClC(Cl)=C(Cl)Cl
inactive: [11] 105 % of control | [12] 98 % of control | [8] 101 % of control | [13] 93 % of control | [9] 99 % of control | [14] 92 % of control | [10] 98 % of control | [15] 88 % of control

O=[N+]([O-])c1ccc(N2CCCC2)c([N+](=O)[O-])c1
inactive: [9] 93 % of control | [10] 100 % of control | [15] 100 % of control

O=C(O)C(O)C(O)C1[O][Sb][O]C1CO (centres undefined)
inactive: dose: 5.0 mg/kg/injection, schedule: Q01DX009 (ip), vehicle: saline 96 % of control | [2] 100 % of control | [3] 88 % of control

COC1=C(O)C(C(O)CO)OC1=O (centres undefined)
inactive: [2] 99 % of control | [3] 110 % of control | [4] 108 % of control

CN(N)P(=S)(c1ccccc1)N(C)N
inactive: [5] 106 % of control | [6] 103 % of control

CC(=O)CC(=O)Nc1cccc(C)c1C
inactive: [9] 94 % of control | [10] 86 % of control | [15] 94 % of control

Oc1ccc(/C=N\Nc2ccccn2)c(O)c1
inactive: [6] 90 % of control | [7] 102 % of control | [8] 98 % of control | [9] 115 % of control | [10] 124 % of control

CC[As](=O)(O)CC
inactive: [1] 97 % of control | [2] 103 % of control | [3] 105 % of control

O=[N+]([O-])c1ccc2c(N=Nc3ccc4ccccc4c3O)c(O)cc(S(=O)(=O)O)c2c1
inactive: dose: 37.5 mg/kg/injection, schedule: Q01DX009 (ip), vehicle: Klucel (hydroxypropylcellulose) (HPC) 94 % of control | dose: 75.0 mg/kg/injection, schedule: Q01DX009 (ip), vehicle: Klucel (hydroxypropylcellulose) (HPC) 98 % of control

Cc1ccc2c(c1)CN(Cc1ccccc1)CO2
inactive: [9] 93 % of control | [10] 96 % of control | [15] 96 % of control

C=CCc1cc2c(C)cc(=O)oc2c(C)c1OC(C)=O
inactive: dose: 100.0 mg/kg/injection, schedule: Q04DX003 (ip), vehicle: gum acacia 95 % of control | dose: 200.0 mg/kg/injection, schedule: Q04DX003 (ip), vehicle: gum acacia 86 % of control | dose: 400.0 mg/kg/injection, schedule: Q04DX003 (ip), vehicle: gum acacia 86 % of control

CC(C)CC(N)C(=O)NCC(=O)NC(Cc1ccccc1)C(=O)O (stereo not drawn) (H-Leu-Gly-Phe-OH; configuration not given here)
inactive: [9] 93 % of control | dose: 100.0 mg/kg/injection, schedule: Q04DX003 (ip), vehicle: Klucel (hydroxypropylcellulose) (HPC) 95 % of control | [10] 91 % of control | dose: 200.0 mg/kg/injection, schedule: Q04DX003 (ip), vehicle: Klucel (hydroxypropylcellulose) (HPC) 97 % of control | [15] 89 % of control | dose: 400.0 mg/kg/injection, schedule: Q04DX003 (ip), vehicle: Klucel (hydroxypropylcellulose) (HPC) 102 % of control

CCOC(=O)c1cc(C(=O)OCC)c(=O)oc1OCC
inactive: [12] 102 % of control | [13] 100 % of control | [14] 100 % of control

ClC1OC(Cl)(Cl)C(Cl)(Cl)OC1(Cl)Cl (centres undefined)
inactive: [9] 93 % of control | [10] 93 % of control | [15] 86 % of control

COc1ccc(Cl)cc1NC(=O)C(Br)C(Br)C(=O)O (centres undefined)
inactive: [11] 102 % of control | [12] 105 % of control | [13] 95 % of control | [14] 89 % of control | dose: 200.0 mg/kg/injection, schedule: Q01DX009 (ip), vehicle: saline with Tween-80 91 % of control

COc1ccc(N=C=Nc2ccc(OC)cc2)cc1
inactive: [6] 93 % of control | [7] 91 % of control

CN(Cc1cnc2nc(N)nc(N)c2n1)c1ccc(C(=O)NC(CCC(=O)O)C(=O)O)cc1Br (centres undefined)
inactive: dose: 0.17 mg/kg/injection, schedule: Q01DX011 (ip), vehicle: saline 101 % of control | dose: 0.35 mg/kg/injection, schedule: Q01DX011 (ip), vehicle: saline 105 % of control | dose: 0.63 mg/kg/injection, schedule: Q01DX009 (ip), vehicle: other 101 % of control | dose: 0.7 mg/kg/injection, schedule: Q01DX011 (ip), vehicle: saline 101 % of control | dose: 1.25 mg/kg/injection, schedule: Q01DX009 (ip), vehicle: other 113 % of control

CCCCCCCCCCCCCCCC(=O)NNC(C)C
inactive: [7] 96 % of control | [8] 90 % of control | [9] 86 % of control
